Assay results: patent USRE48461E1, “Modulation of androgen receptor expression” (Ionis Pharmaceuticals, Inc., priority 2012, dated 2021)
Oligonucleotides are written 5' to 3', each unit as a sugar letter and its base; * is a phosphorothioate linkage, no mark a phosphodiester; rarer units and linkages stand in square brackets, end groups in braces. Plain capitals give the bases only. k = constrained ethyl (cEt); [5mC] = 5-methylcytosine; d = 2'-deoxy (DNA)

Assays:
[1] = system: AR mRNA; experiment: AR mRNA in LnCaP cells by free uptake (hAR_LTS00943); type: cell-based, human; details: 24 hrs
Method: Cells were plated at a concentration of 4,000 cells/well in 96-well plates. ISIS oligonucleotides, specified in Table 68, were added individually at 0.02 μM, 0.10 μM, 0.50 μM, 2.50 μM, or 10.00 μM. After an incubation period of 24 hrs, mRNA levels were measured using primer probe set hAR_LTS00943.

[2] = system: AR mRNA; experiment: Dose-dependent antisense inhibition of human AR in HuVEC cells (electroporation, qRT-PCR RTS3559, IC50); type: cell-based
In short: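 HuVEC cells dosed with antisense oligonucleotides by electroporation and treated approximately 16 hours. AR mRNA quantified by real-time qPCR with primer probe set RTS3559 and normalised to total RNA by RIBOGREEN; IC50 from dose-response.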

Substance: 549372 (kA*kA*kG*dT*dT*dG*dT*dA*dG*dT*dA*dG*dT*k[5mC]*kG*k[5mC]) [compound 549372]
- Percent inhibition of AR mRNA ([1]; 0.02 μM): 0%
- Percent inhibition of AR mRNA ([1]; 0.1 μM): 0%
- Percent inhibition of AR mRNA ([1]; 0.5 μM): 21%
- Percent inhibition of AR mRNA ([1]; 10 μM): 78%
- percent inhibition of AR ([2]; 31.25 nM, HuVEC, ~16 h, Table 14): 2%
- percent inhibition of AR ([2]; 46.9 nM, HuVEC, ~16 h, Table 15): 9%
- percent inhibition of AR ([2]; 55.6 nM, HuVEC, ~16 h, Table 3): 22%
- percent inhibition of AR ([2]; 62.5 nM, HuVEC, ~16 h, Table 14): 17%
- percent inhibition of AR ([2]; 125.0 nM, HuVEC, ~16 h, Table 14): 31%
- percent inhibition of AR ([2]; 166.7 nM, HuVEC, ~16 h, Table 3): 51%
- percent inhibition of AR ([2]; 187.5 nM, HuVEC, ~16 h, Table 15): 41%
- percent inhibition of AR ([2]; 500.0 nM, HuVEC, ~16 h, Table 3): 85%
- percent inhibition of AR ([2]; 500.0 nM, HuVEC, ~16 h, Table 14): 61%
- percent inhibition of AR ([2]; 750.0 nM, HuVEC, ~16 h, Table 15): 66%
- percent inhibition of AR ([2]; 1000.0 nM, HuVEC, ~16 h, Table 14): 80%
- percent inhibition of AR ([2]; 1500.0 nM, HuVEC, ~16 h, Table 3): 89%
- percent inhibition of AR ([2]; 3000.0 nM, HuVEC, ~16 h, Table 15): 87%
- IC50 ([2]; HuVEC cells, electroporation): 290 nM
- inhibition of AR mRNA at 46.9 nM ([2]; HuVEC cells, electroporation, 46.9 nM ASO): 9%
- inhibition of AR mRNA at 187.5 nM ([2]; HuVEC cells, electroporation, 187.5 nM ASO): 41%
- inhibition of AR mRNA at 750.0 nM ([2]; HuVEC cells, electroporation, 750.0 nM ASO): 66%
- inhibition of AR mRNA at 3000.0 nM ([2]; HuVEC cells, electroporation, 3000.0 nM ASO): 87%
- IC50 ([2]; HuVEC, ~16 h, Table 3): 150 nM
- IC50 ([2]; HuVEC, ~16 h, Table 14): 271 nM
- IC50 ([2]; HuVEC, ~16 h, Table 15): 290 nM
- percent inhibition of AR, 46.9 nM ([2]; Table 29, 46.9 nM, HuVEC, electroporation, approximately 16 hours): 7%
- percent inhibition of AR, 187.5 nM ([2]; Table 29, 187.5 nM, HuVEC, electroporation, approximately 16 hours): 41%
- percent inhibition of AR, 750.0 nM ([2]; Table 29, 750.0 nM, HuVEC, electroporation, approximately 16 hours): 70%
- percent inhibition of AR, 3000.0 nM ([2]; Table 29, 3000.0 nM, HuVEC, electroporation, approximately 16 hours): 91%
- IC50 ([2]; Table 29, HuVEC, electroporation, approximately 16 hours): 320 nM
- percent inhibition of AR, 46.9 nM ([2]; Table 30, 46.9 nM, HuVEC, electroporation, approximately 16 hours): 13%
- percent inhibition of AR, 187.5 nM ([2]; Table 30, 187.5 nM, HuVEC, electroporation, approximately 16 hours): 29%
- percent inhibition of AR, 750.0 nM ([2]; Table 30, 750.0 nM, HuVEC, electroporation, approximately 16 hours): 69%
- percent inhibition of AR, 3000.0 nM ([2]; Table 30, 3000.0 nM, HuVEC, electroporation, approximately 16 hours): 90%
- IC50 ([2]; Table 30, HuVEC, electroporation, approximately 16 hours): 370 nM
- percent inhibition of AR, 46.9 nM ([2]; Table 31, 46.9 nM, HuVEC, electroporation, approximately 16 hours): 5%
- percent inhibition of AR, 187.5 nM ([2]; Table 31, 187.5 nM, HuVEC, electroporation, approximately 16 hours): 36%
- percent inhibition of AR, 750.0 nM ([2]; Table 31, 750.0 nM, HuVEC, electroporation, approximately 16 hours): 69%
- percent inhibition of AR, 3000.0 nM ([2]; Table 31, 3000.0 nM, HuVEC, electroporation, approximately 16 hours): 88%
- IC50 ([2]; Table 31, HuVEC, electroporation, approximately 16 hours): 360 nM
- percent inhibition of AR, 46.9 nM ([2]; Table 32, 46.9 nM, HuVEC, electroporation, approximately 16 hours): 15%
- percent inhibition of AR, 187.5 nM ([2]; Table 32, 187.5 nM, HuVEC, electroporation, approximately 16 hours): 39%
- percent inhibition of AR, 750.0 nM ([2]; Table 32, 750.0 nM, HuVEC, electroporation, approximately 16 hours): 70%
- percent inhibition of AR, 3000.0 nM ([2]; Table 32, 3000.0 nM, HuVEC, electroporation, approximately 16 hours): 86%
- IC50 ([2]; Table 32, HuVEC, electroporation, approximately 16 hours): 300 nM
- percent inhibition of AR, 46.9 nM ([2]; Table 33, 46.9 nM, HuVEC, electroporation, approximately 16 hours): 14%
- percent inhibition of AR, 187.5 nM ([2]; Table 33, 187.5 nM, HuVEC, electroporation, approximately 16 hours): 33%
- percent inhibition of AR, 750.0 nM ([2]; Table 33, 750.0 nM, HuVEC, electroporation, approximately 16 hours): 64%
- percent inhibition of AR, 3000.0 nM ([2]; Table 33, 3000.0 nM, HuVEC, electroporation, approximately 16 hours): 90%
- IC50 ([2]; Table 33, HuVEC, electroporation, approximately 16 hours): 340 nM
- percent inhibition of AR, 46.9 nM ([2]; Table 34, 46.9 nM, HuVEC, electroporation, approximately 16 hours): 14%
- percent inhibition of AR, 187.5 nM ([2]; Table 34, 187.5 nM, HuVEC, electroporation, approximately 16 hours): 36%
- percent inhibition of AR, 750.0 nM ([2]; Table 34, 750.0 nM, HuVEC, electroporation, approximately 16 hours): 64%
- percent inhibition of AR, 3000.0 nM ([2]; Table 34, 3000.0 nM, HuVEC, electroporation, approximately 16 hours): 88%
- IC50 ([2]; Table 34, HuVEC, electroporation, approximately 16 hours): 320 nM
- percent inhibition of AR, 46.9 nM ([2]; Table 35, 46.9 nM, HuVEC, electroporation, approximately 16 hours): 0%
- percent inhibition of AR, 187.5 nM ([2]; Table 35, 187.5 nM, HuVEC, electroporation, approximately 16 hours): 28%
- percent inhibition of AR, 750.0 nM ([2]; Table 35, 750.0 nM, HuVEC, electroporation, approximately 16 hours): 64%
- percent inhibition of AR, 3000.0 nM ([2]; Table 35, 3000.0 nM, HuVEC, electroporation, approximately 16 hours): 88%
- IC50 ([2]; Table 35, HuVEC, electroporation, approximately 16 hours): 420 nM
- percent inhibition of AR, 46.9 nM ([2]; Table 36, 46.9 nM, HuVEC, electroporation, approximately 16 hours): 2%
- percent inhibition of AR, 187.5 nM ([2]; Table 36, 187.5 nM, HuVEC, electroporation, approximately 16 hours): 26%
- percent inhibition of AR, 750.0 nM ([2]; Table 36, 750.0 nM, HuVEC, electroporation, approximately 16 hours): 61%
- percent inhibition of AR, 3000.0 nM ([2]; Table 36, 3000.0 nM, HuVEC, electroporation, approximately 16 hours): 85%
- IC50 ([2]; Table 36, HuVEC, electroporation, approximately 16 hours): 420 nM
